The target in test [1] is T1, recombinant human AChE (Homo sapiens, UniProt P22303).
Test [2] concerns the target T1, recombinant human AChE. Briefly: biochemical.
The target in test [3] is AChE in SH-SY5Y cells (Homo sapiens, UniProt P22303). As to the kind of experiment: cell-based.

Where “and” joins values, the source holds several entries; their conditions need not be identical. Equal entries are not always repeated. Structures can show the parent of a compound that is named as a salt. Where two headings read alike, the source gives them in different places.

We go through 25 compounds from publication PMC8041433 (Environmental Health Perspectives, 2021).

T1 sequence (P22303 32-614): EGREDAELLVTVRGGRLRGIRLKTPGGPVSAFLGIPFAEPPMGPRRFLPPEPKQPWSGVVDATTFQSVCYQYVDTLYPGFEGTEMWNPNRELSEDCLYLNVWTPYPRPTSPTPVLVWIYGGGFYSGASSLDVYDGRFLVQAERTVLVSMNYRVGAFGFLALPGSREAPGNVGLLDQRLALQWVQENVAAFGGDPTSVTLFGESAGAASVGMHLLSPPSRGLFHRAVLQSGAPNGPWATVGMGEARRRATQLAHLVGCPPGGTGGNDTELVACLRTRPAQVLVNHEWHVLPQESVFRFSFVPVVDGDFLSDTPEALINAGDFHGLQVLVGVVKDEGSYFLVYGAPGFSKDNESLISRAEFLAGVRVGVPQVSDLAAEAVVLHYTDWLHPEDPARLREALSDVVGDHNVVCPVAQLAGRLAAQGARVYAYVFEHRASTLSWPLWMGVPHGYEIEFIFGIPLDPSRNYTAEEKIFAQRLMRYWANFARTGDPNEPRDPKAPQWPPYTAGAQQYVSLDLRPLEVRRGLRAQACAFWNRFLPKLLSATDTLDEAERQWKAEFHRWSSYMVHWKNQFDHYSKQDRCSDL
AChE in SH-SY5Y cells, sequence (P22303 32-614): as above

For `Cc1nccn1CC1CCc2c(c3ccccc3n2C)C1=O` (stereo not shown) [Ondansetron], in test [1], the “CC-v2 (curve classes)” value is reported as 4 and the Efficacy was determined as 0. For the same compound, in test [2], the “CC-v2 (curve classes)” value was 4 and the Efficacy is on record as -23.749. The half-inhibitory concentration (IC50) (in general, the concentration that inhibits the measured activity by half) in test [3] (IC50 (uM)) is 30.9 µM and 34.7 µM and 38.9 µM.
As to `O=C1c2c(O)ccc(Nc3ccc(CCO)cc3)c2C(=O)c2c([N+](=O)[O-])ccc(O)c21` [C.I. Disperse Blue 27], the “CC-v2 (curve classes)” value in test [1] was 4; in test [2], -1.2; in test [3] it was -1.1. In addition, the Efficacy in test [1] was 0; in test [2] it was -62.368. Besides, the concentration for half-maximal inhibition (IC50) in test [2] (read-out: IC50) was 20 µM; in test [3] (read-out: IC50), 8.94 µM and 10 µM.
In the case of `COP(=O)(OC)O/C(C)=C/C(=O)N(C)C` [Dicrotophos], the “CC-v2 (curve classes)” value is 4 in test [1], -2.2 in test [2] and -2.1 in test [3]. Further, the figures for the Efficacy in test [1] and in test [2] were 0 and -67.448, respectively. Further, the IC50 in test [2] (IC50 (uM)) was 63.7 µM; in test [3] (IC50 (uM)), 40.2 µM and 31.9 µM.
`Cc1nc2ccccn2c(=O)c1CCN1CCC(C(=O)c2ccc(F)cc2)CC1` [Pirenperone]: the “CC-v2 (curve classes)” value in test [1] was 4; in test [2], -2.4; in test [3] it was -2.1. The Efficacy in test [1] is 0; in test [2], -31.06. For the same compound, the IC50 in test [2] (IC50 (uM)) was 38.9 µM; in test [3] (IC50 (uM)), 17.4 µM and 24.5 µM.
On to `COc1cc2nc(N3CCN(C(=O)c4ccco4)CC3)nc(N)c2cc1OC` [Prazosin], for which the Efficacy in test [1] is on record as 0; in test [2], -14.406. In addition, the IC50 in test [3] (IC50 (uM)) is 15.1 µM and 16.9 µM and 9.52 µM.
Regarding `CN(C)c1ccc(C(=C2C=CC(=[N+](C)C)C=C2)c2ccc(N(C)C)cc2)cc1.[Cl-]` [Methylrosaniline chloride], the figures for the “CC-v2 (curve classes)” value in test [1] and in test [2] were 4 and -2.1, respectively. Further, the Efficacy in test [1] was 0; in test [2], -113.882. The IC50 came out at 30.9 µM in test [2] (read-out: IC50) and 38.9 µM in test [3] (read-out: IC50).
As for `CC1(C)Cc2cccc(O)c2O1` [2,3-Dihydro-2,2-dimethyl-7-benzofuranol, reference compound], in test [2], the “AChE inhibition (result in words)” value was “inactive”.
As to `CCOC(=O)COc1ccc2c(C)c(CCN(CC)CC)c(=O)oc2c1Cl.Cl` [Cloricromen hydrochloride], the “CC-v2 (curve classes)” value in test [1] is on record as 4; in test [2] it was -2.1; in test [3], -2.1. For the same compound, the Efficacy in test [1] was -27.609; in test [2], -70.529. In addition, the IC50 in test [2] (read-out: IC50) is 15.5 µM; in test [3] (read-out: IC50), 13.8 µM and 15.5 µM.
Consider `CC[n+]1c(-c2ccccc2)c2cc(N)ccc2c2ccc(N)cc21` [Ethidium bromide], for which the results for the “CC-v2 (curve classes)” value in test [1], in test [2] and in test [3] were 4, -2.2 and -2.1, respectively. Besides, the IC50 in test [2] (IC50 (uM)) is 30.9 µM and 79.3 µM; in test [3] (IC50 (uM)), 19.5 µM and 31.6 µM and 17.4 µM.
Regarding `CCCCOc1ccc(C(=O)CCN2CCCCC2)cc1` [Dyclonine hydrochloride], the “CC-v2 (curve classes)” value is 4 in test [1], -2.2 in test [2] and -2.1 in test [3]. The Efficacy in test [1] is 0; in test [2], -57.155. In addition, the IC50 in test [2] (IC50 (uM)) is 27.5 µM; in test [3] (IC50 (uM)), 12.3 µM and 13.8 µM.
`COc1nn(CSP(=S)(OC)OC)c(=O)s1` [Methidathion]: the “CC-v2 (curve classes)” value in test [1] and in test [2] was 4 in each case. The Efficacy in test [2] was 0. Besides, in test [3] (IC50 (uM)), the IC50 is 63.3 µM and 79.6 µM and 71 µM and 56.4 µM and 39.9 µM and 35.6 µM and 44.8 µM and 50.2 µM.
For `CC(C)=CCN1CC[C@@]2(C)c3cc(O)ccc3C[C@@H]1[C@@H]2C.O=C(O)CCC(=O)O` [(-)-Pentazocine succinate, reference compound], the “CC-v2 (curve classes)” value in test [1] is recorded as 4; in test [2], -2.4; in test [3], -2.1. Moreover, the Efficacy in test [1] turned out to be 0. In addition, in test [3] (read-out: IC50), the IC50 is 31.2 µM and 35.1 µM and 34.8 µM and 24.7 µM and 31 µM.
On to `Cc1nc2n(c(=O)c1CCN1CCC(c3noc4cc(F)ccc34)CC1)CCCC2` [Risperidone], for which the “CC-v2 (curve classes)” value in test [1] is 4; in test [2], 4; in test [3], -1.1 and -2.1. The Efficacy in test [1] is given as 0; in test [2], -13.373.
As for `CN(CCOc1ccc(NS(C)(=O)=O)cc1)CCc1ccc(NS(C)(=O)=O)cc1` [Dofetilide], the Efficacy was 0 in test [1] and -14.56 in test [2]. The IC50 in test [3] (IC50 (uM)) came out at 17.4 µM.
`COc1cc2nc(N3CCN(C(=O)C4CCCO4)CC3)nc(N)c2cc1OC` (stereo not shown) [Terazosin hydrochloride]: the results for the “CC-v2 (curve classes)” value in test [1] and in test [2] were 4 and -2.2, respectively. The Efficacy in test [1] is 0; in test [2], -49.646. In addition, the IC50 in test [2] (IC50 (uM)) was 38.9 µM; in test [3] (IC50 (uM)) it was 30.9 µM and 27.5 µM.
As to `CNC(=O)O/N=C(\C)C(C)S(C)(=O)=O` (stereo not shown) [Butoxycarboxim], the figures for the “CC-v2 (curve classes)” value in test [1], in test [2] and in test [3] were 4, -2.2 and -2.1, respectively. Moreover, the Efficacy in test [1] was 0; in test [2] it was -49.747. Further, the IC50 was 794 µM in test [2] (IC50 (uM)); 355 µM and 398 µM and 447 µM in test [3] (IC50 (uM)).
`Cl.O=C(c1ccc(F)cc1)C1CCN(CCn2c(=S)[nH]c3ccccc3c2=O)CC1` [Altanserin hydrochloride]: the “CC-v2 (curve classes)” value in test [1] was 4; in test [2], 4; in test [3] it was -2.1. Further, the Efficacy in test [1] and in test [2] was 0 each time. Moreover, in test [3] (read-out: IC50), the IC50 was 13.8 µM.
In the case of `CCOP(=S)(OCC)Oc1cc(C)nc(N(CC)CC)n1` [Pirimiphos-ethyl], in test [1], the “CC-v2 (curve classes)” value amounted to 4 and the Efficacy was -16.211. In addition, in test [2], the “AChE inhibition (result in words)” value is recorded as “did not show effects”, the “CC-v2 (curve classes)” value was 4 and the Efficacy was -15.947.
Turning to `CNC(=O)O/N=C/C(C)(C)S(C)(=O)=O` [Aldoxycarb], the “CC-v2 (curve classes)” value is -1.1 and -2.1 in test [2]; -2.1 in test [3].
On to `COc1cc2nc(N3CCN(C(=O)C4COc5ccccc5O4)CC3)nc(N)c2cc1OC` (stereo not shown) [Doxazosin mesylate], for which, in test [1], the “CC-v2 (curve classes)” value turned out to be 4 and the Efficacy was 0. Moreover, in test [2], the “CC-v2 (curve classes)” value is given as -2.2 and the Efficacy is -37.943.
In the same order, the values of `CCOP(=S)(OCC)Oc1cc(Cl)c(Br)cc1Cl` [Bromophos-ethyl] are -1.1, -91.453, -3 and -50.884.
Take `COP(=S)(OC)SCn1nnc2ccccc2c1=O` [Azinphos-methyl]: the “CC-v2 (curve classes)” value is 4 in test [1]; -2.1 and -1.1 in test [3].
Take `CNC(=C[N+](=O)[O-])NCCSCc1ccc(CN(C)C)o1` [Ranitidine, reference compound]: in test [3], the “CC-v2 (curve classes)” value is recorded as -1.1.
With `CCOC(=O)CC(SP(=S)(OC)OC)C(=O)OCC` (stereo not shown) [malathion], the “AChE inhibition (result in words)” value in test [2] is recorded as “not identified to inhibit AChE”.
For the compound `COP(N)(=O)SC` (stereo not shown) [Methamidophos], the “CC-v2 (curve classes)” value in test [2] and in test [3] was -2.1 throughout.
